Reference: paper PMC8253220, “Molecular design, synthesis and in vitro biological evaluation of thienopyrimidine–hydroxamic acids as chimeric kinase HDAC inhibitors: a challenging approach to combat cancer” (Journal of Enzyme Inhibition and Medicinal Chemistry, 2021)
“And” between values parts separate entries of the source, which are not always exact repeats. Equal entries are not always repeated.

Legend:
Test in all cases: NCI one-dose screen
Assay type in all cases: cell-based, human
MOLT-4 = settings: Leukemia MOLT-4, 10 µM single dose
Procedure, shortened: (§1)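 Screening used the full NCI panel of 60 cancer cell lines with compounds dosed once at 10 μM; the reported value is percent growth inhibition versus untreated controls.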

KM12 = settings: Colon KM12, 10 µM single dose
Procedure, shortened: as §1

SK-MEL-28 = settings: Melanoma SK-MEL-28, 10 µM single dose
Procedure, shortened: (§2)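 Following the standard NCI-60 protocol, compounds were applied once at 10 μM to all 60 cancer lines. Read-out is percent growth versus untreated controls, expressed as inhibition %.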

HL-60(TB) = settings: Leukemia HL-60(TB), 10 µM single dose
Procedure, shortened: (§3)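 At 10 μM, a single concentration, compounds were evaluated for antiproliferative effect in the NCI 60-line screen, with growth expressed relative to untreated control cells.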

UO-31 = settings: for Growth Percent: Renal UO-31, 10 µM single dose
Procedure, shortened: (§4)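 Each cell line received compound at 10 μM as part of the NCI one-dose protocol. Values reflect growth inhibition percent calculated from growth relative to untreated controls.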

DU-145 = settings: Prostate DU-145, 10 µM single dose
Procedure, shortened: as §3

U251 = settings: CNS U251, 10 µM single dose
Procedure, shortened: as §4

T-47D = settings: Breast T-47D, 10 µM single dose
Procedure, shortened: as §3

MDA-MB-468 = settings: Breast MDA-MB-468, 10 µM single dose
Procedure, shortened: as §1

NCI-H226 = settings: NSCLC NCI-H226, 10 µM single dose
Procedure, shortened: as §4

LOX IMVI = settings: Melanoma LOX IMVI, 10 µM single dose
Procedure, shortened: as §3

NCI-H460 = settings: NSCLC NCI-H460, 10 µM single dose
Procedure, shortened: as §3

SW-620 = settings: Colon SW-620, 10 µM single dose
Procedure, shortened: as §2

K-562 = settings: Leukemia K-562, 10 µM single dose
Procedure, shortened: as §3

SK-MEL-2 = settings: Melanoma SK-MEL-2, 10 µM single dose
Procedure, shortened: (§5)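 One concentration (10 μM) applied to each line of the full NCI-60 panel; percent growth compared against untreated cells.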

NCI-H322M = settings: NSCLC NCI-H322M, 10 µM single dose
Procedure, shortened: as §3

SF-268 = settings: CNS SF-268, 10 µM single dose
Procedure, shortened: as §1

SN12C = settings: Renal SN12C, 10 µM single dose
Procedure, shortened: as §3

HOP-92 = settings: NSCLC HOP-92, 10 µM single dose
Procedure, shortened: as §3

OVCAR-5 = settings: Ovarian OVCAR-5, 10 µM single dose
Procedure, shortened: as §3

HOP-62 = settings: NSCLC HOP-62, 10 µM single dose
Procedure, shortened: as §5

RPMI-8226 = settings: Leukemia RPMI-8226, 10 µM single dose
Procedure, shortened: as §3

COLO 205 = settings: Colon COLO 205, 10 µM single dose
Procedure, shortened: as §3

HCC-2998 = settings: Colon HCC-2998, 10 µM single dose
Procedure, shortened: as §3

CAKI-1 = settings: Renal CAKI-1, 10 µM single dose
Procedure, shortened: as §3

MCF7 = settings: Breast MCF7, 10 µM single dose
Procedure, shortened: as §1

IGROV1 = settings: Ovarian IGROV1, 10 µM single dose
Procedure, shortened: as §3

PC-3 = settings: Prostate PC-3, 10 µM single dose
Procedure, shortened: as §2

MDA-MB-435 = settings: Melanoma MDA-MB-435, 10 µM single dose
Procedure, shortened: as §3

NCI-H23 = settings: NSCLC NCI-H23, 10 µM single dose
Procedure, shortened: as §1

HS 578T = settings: Breast HS 578T, 10 µM single dose
Procedure, shortened: as §3

SNB-19 = settings: CNS SNB-19, 10 µM single dose
Procedure, shortened: as §5

BT-549 = settings: Breast BT-549, 10 µM single dose
Procedure, shortened: as §3

SF-295 = settings: CNS SF-295, 10 µM single dose
Procedure, shortened: as §3

SR = settings: Leukemia SR, 10 µM single dose
Procedure, shortened: as §3

OVCAR-8 = settings: Ovarian OVCAR-8, 10 µM single dose
Procedure, shortened: as §3

UACC-257 = settings: Melanoma UACC-257, 10 µM single dose
Procedure, shortened: as §2

Row | Structure (SMILES) | Growth Percent (MOLT-4) | Growth Percent (KM12) | Growth Percent (SK-MEL-28) | Growth Percent (HL-60(TB)) | Growth Percent (UO-31) | Growth Percent (DU-145) | Growth Percent (U251) | Growth Percent (T-47D) | Growth Percent (MDA-MB-468) | Growth Percent (NCI-H226) | Growth Percent (LOX IMVI) | Growth Percent (NCI-H460) | Growth Percent (SW-620) | Growth Percent (K-562) | Growth Percent (SK-MEL-2) | Growth Percent (NCI-H322M) | Growth Percent (SF-268) | Growth Percent (SN12C) | Growth Percent (HOP-92) | Growth Percent (OVCAR-5) | also measured
1 | Cc1c(C(=O)NO)sc2ncnc(Nc3ccccc3)c12 [Compound 15b, N-hydroxy-5-methyl-4-(phenylamino)thieno[2,3-d]pyrimidine-6-carboxamide] | 103.5% | 102.0% and 102.03% | 100.9% and 100.91% | 103.0% and 103.03% | 72.7% and 72.78% | 100.1% and 100.13% | 90.0% and 90.06% | 90.8% and 90.83% | 80.8% | 89.3% and 89.32% | 96.0% and 96.03% | 101.6% and 101.66% | 89.5% and 89.53% | 94.9% and 94.99% | 109.3% and 109.33% | 101.8% and 101.81% | 91.8% and 91.83% | 92.8% and 92.82% | 99.8% and 99.83% | 98.4% and 98.41% | Growth Percent (HOP-62): 103.6% and 103.61%; Growth Percent (RPMI-8226): 106.0% and 106.04%; Growth Percent (COLO 205): 115.6% and 115.62%; Growth Percent (HCC-2998): 99.9% and 99.98%; Growth Percent (CAKI-1): 77.6% and 77.61%; Growth Percent (MCF7): 87.2% and 87.27%; Growth Percent (IGROV1): 87.7%; Growth Percent (PC-3): 100.1% and 100.15%; Growth Percent (MDA-MB-435): 98.5% and 98.58%; Growth Percent (NCI-H23): 90.5% and 90.51%; Growth Percent (HS 578T): 104.7% and 104.75%; Growth Percent (SNB-19): 93.0% and 93.06%; Growth Percent (BT-549): 112.4% and 112.44%; Growth Percent (SF-295): 91.9% and 91.96%; Growth Percent (SR): 78.2%; Growth Percent (OVCAR-8): 104.4% and 104.46%; Growth Percent (UACC-257): 107.0% and 107.03%
2 | Cc1c(C(=O)NO)sc2ncnc(Nc3ccc(Cl)cc3)c12 [Compound 15c, 4–(4-chlorophenylamino)-N-hydroxy-5-methylthieno[2,3-d]pyrimidine-6-carboxamide] | 102.3% and 102.36% | 100.9% and 100.92% | 110.6% and 110.64% | 104.9% and 104.93% | 71.2% | 108.8% and 108.86% | 100.9% and 100.96% | 90.6% and 90.65% | 102.9% and 102.91% | 85.6% and 85.66% | 95.8% and 95.88% | 98.9% and 98.93% | 102.6% and 102.65% | 105.0% | 94.5% and 94.54% | 97.2% and 97.24% | 94.8% and 94.84% | 98.6% and 98.63% | 101.5% and 101.51% | 107.6% and 107.61% | inhibition at 10 µM (UO-31; Homo sapiens, renal UO-31, 10 μM): 28.8%; Growth Percent (HOP-62): 92.8% and 92.81%; Growth Percent (RPMI-8226): 104.3% and 104.38%; Growth Percent (COLO 205): 116.7% and 116.75%; Growth Percent (HCC-2998): 115.4% and 115.42%; Growth Percent (CAKI-1): 86.4% and 86.45%; Growth Percent (MCF7): 88.6%; Growth Percent (IGROV1): 72.7% and 72.73%; Growth Percent (PC-3): 97.6% and 97.64%; Growth Percent (MDA-MB-435): 102.4% and 102.42%; Growth Percent (NCI-H23): 91.8% and 91.83%; Growth Percent (HS 578T): 102.5% and 102.54%; Growth Percent (SNB-19): 94.8% and 94.85%; Growth Percent (BT-549): 116.4% and 116.44%; Growth Percent (SF-295): 102.7% and 102.79%; Growth Percent (SR): 102.7% and 102.79%; Growth Percent (OVCAR-8): 102.0% and 102.02%; Growth Percent (UACC-257): 110.0% and 110.09%
3 | Cc1c(C(=O)NCCC(=O)NO)sc2ncnc(Nc3ccccc3)c12 [Compound 19b, N-(3-(hydroxyamino)-3-oxopropyl)-5-methyl-4-(phenylamino)thieno[2,3-d]pyrimidine-6-carboxamide] | 107.4% and 107.47% | 101.9% and 101.98% | 107.9% and 107.91% | 103.7% | 86.4% and 86.41% | 108.0% and 108.08% | 101.5% and 101.54% | 101.18% | 92.2% and 92.23% | 89.4% and 89.44% | 93.7% | 100.8% and 100.82% | 99.6% and 99.64% | 101.9% and 101.92% | 108.6% and 108.65% | 99.0% and 99.06% | 97.0% | 98.5% and 98.51% | 102.5% | 102.0% and 102.09% | Growth Percent (HOP-62): 100.4% and 100.46%; Growth Percent (RPMI-8226): 103.3% and 103.33%; Growth Percent (COLO 205): 110.7% and 110.74%; Growth Percent (HCC-2998): 97.7%; Growth Percent (CAKI-1): 96.2% and 96.21%; Growth Percent (MCF7): 92.3% and 92.31%; Growth Percent (IGROV1): 101.8% and 101.82%; Growth Percent (PC-3): 105.1% and 105.18%; Growth Percent (MDA-MB-435): 102.9% and 102.98%; Growth Percent (NCI-H23): 95.7% and 95.71%; Growth Percent (HS 578T): 103.8% and 103.85%; Growth Percent (SNB-19): 99.8% and 99.82%; Growth Percent (BT-549): 109.1% and 109.16%; Growth Percent (SF-295): 91.8% and 91.88%; Growth Percent (SR): 104.5% and 104.58%; Growth Percent (OVCAR-8): 99.4% and 99.45%; Growth Percent (UACC-257): 105.0% and 105.04%
